The text below walks through data of patent publication US7186817B2, “Polynucleotides encoding phytase polypeptides” (Forskningscenter Riso, priority 2000, dated 2007).

In one data set the test system is soybean phytase. Particulars: cited from earlier work.
For data set [1], the system named is phytase activity of fraction F1. Particulars: fraction F1, pH optimum 5.6; cited from earlier work.
In data set [2] the test system is earlier described phytase activity (wheat bran). Particulars: activity with optimum at about pH 5.0; cited from earlier work.
Data set [3] can be described thus: Determination of the isoelectric point (non-denaturing isoelectric focusing). The format is physicochemical. Conditions: visualised with 1-naphtylphosphate and Farst Garnet GBC. As for the experimental part:
FIG. 5: depicts the isoelectric focusing of the purified wheat bran phytase. A double band at pH 7.4 is visible after incubation with 1-naphtylphosphate and Farst Garnet GBC.
Proteins were focused at 11° C. for a total of 2.5 kVh in non-denaturing isoelectric-focusing polyacrylamid gels (IEF)(Ampholine PAGplate pH 3.5–9.5 (Pharmacia)). An IEF calibration kit (Pharmacia) was applied to determine the pH-gradient across the gel. The IEF markers were visualised by Coomassie staining according to the recommendations of the manufacturer. The presence of acid phosphatase was identified by incubation of the gel at 37° C. in 100 ml 0.05M citrate, pH 4.5 with 50 mg Na-1-naphtyl phosphate (Merck 6815), 25 mg Farst Garnet GBC (Sigma F-8761) and 0.5 ml 10% MgCl.

On to phosphate, for which the enzyme active with soybean phytase (0.5 μM phosphate) was 67%. Further, the Ki on soybean phytase (read-out: apparent Ki, product inhibition by phosphate) is 18 µM. In addition, the “inhibition of activity by phosphate” value is recorded as “inhibited” in data set [1] and “not inhibited at all” in data set [2].

B1: wheat bran phytase: phytase purified from wheat bran according to the invention (SEQ ID NO: 7) (protein, listed as Triticum aestivum)
chain: MWMWRGSLPLLLLAAAVAAAAEPASTLEGPSRPVTVPLREDRGHAVDLPDTDPRVQRRVTGWAPEQIAVALSAAPTSAWVSWITGDFQMGGAVKPLDPGTVGSVVRYGLAADSLVREATGDALVYSQLYPFEGLQNYTSGIIHHVRLQGLEPGTKYYYQCGDPAIPGAMSAVHAFRTMPAVGPRSYPGRIAVVGDLGLTYNTTSTVDHMASNRPDLVLLVGDVCYANMYLTNGTGADCYSCAFGKSTPIHETYQPRWDYWGRYMEAVTSGTPMMVVEGNHEIEEQIGNKTFAAYRSRFAFPSTESGSFSPFYYSFDAGGIHFLMLGAYADYGRSGEQYRWLEKDLAKVDRSVTPWLVAGWHAPWYTTYKAHYREVECMRVAMEELLYSHGLDIAFTGHVHAYERSNRVFNYTLDPCGAVHISVGDGGNREKMATTHADEPGHCPDPRPKPNAFIGGFCAFNFTSGPAAGRFCWDRQPDYSAYRESSFGHGILEVKNETHALWRWHRNQDMYGSAGDEIYIVREPHRCLHKHNWTRPAHGP
On to B1, for which, in data set [3], the “isoelectric focusing, double band at pH” value came out at 7.4 pH.
